Values of other authors, collected in US8580245B2, “Compositions and methods for treating and preventing cardiomyopathy and heart disease” (The Regents of the University of Michigan, priority 2005, dated 2013).

Test system: elderly men with isolated diastolic dysfunction
Conditions: verapamil vs placebo, 20 elderly men, p<0.05

In the case of `COc1ccc(CCN(C)CCCC(C#N)(c2ccc(OC)c(OC)c2)C(C)C)cc1OC` (stereo not shown) [verapamil], the exercise time increase is listed as 33%, the heart rate decrease is listed as 10% and the “peak left ventricular filling rate increase” value is listed as 30%. The symptoms was “improved”.
